{"source": "patent US20100081622A1", "about": "“Reduction of parathyroid hormone levels” (Sanos Bioscience A/S, priority 2008, published 2010)", "key": {"[1]": {"system": "serum PTH", "conditions": "tHPT patients, after 10 weeks of treatment; cited from earlier work"}, "[2]": {"conditions": "rats; cited from earlier work"}, "[3]": {"system": "plasma PTH", "assay": "Plasma PTH after morning administration of GLP-2 in fasting subjects (Example 1)", "assay_type": "in vivo, human", "conditions": "postmenopausal women, one dose of 100, 200, 400 or 800 μg at 9 am, followed 8 hrs, FIG. 1", "description": "The study was a randomized, block-stratified, placebo-controlled, parallel study. A total of 60 subjects of postmenopausal women were included and allocated to one of five groups each including 12 subjects receiving one dose of 100 μg, 200 μg, 400 μg, 800 μg GLP-2, or placebo.\nOn the day of treatment with the study medication, the subjects met at the study site after an overnight fast. The study medication was administered at 9 am (0 hrs) and the subjects remained fasting for another 8 hrs, thus at 5 pm the fasting period ended."}, "[4]": {"system": "plasma PTH", "assay": "Plasma PTH at Day 1 and Day 120 after daily bedtime administration for 120 days (Example 3)", "assay_type": "in vivo, human", "conditions": "postmenopausal women with osteopenia; daily 0.4, 1.6 or 3.2 mg subcutaneous at bedtime for 120 days plus calcium and vitamin D", "description": "The study was a randomised, double-blinded, placebo-controlled, parallel group and dose-ranging study in 160 postmenopausal women with osteopenia (BMD T-score, −2.5≦T≦−1.0) at one or more of the regions: the lumbar spine, femoral neck or total hip. Forty (40) subjects were randomised to each treatment group to receive treatment with daily doses of 0.4 mg, 1.6 mg or 3.2 mg of GLP-2 plus calcium (800-1000 mg/day) and vitamin D (400-800 IU/day), or placebo plus calcium (800-1000 mg/day) and vitamin D (400-800 IU/day) for 120 days.\nThe treatment involved a daily injection of the study medication at bedtime (10:00 pm±1 hour) for 120 consecutive days.\nPharmacokinetic/dynamic sampling during treatment Day 1 and 120 included blood and urine samples collected at the time points: −1 hour, 0 min, 1 hour, 2 hours, 3 hours, 6 hours and 10 hours in connection with the injection of the study medication for the assessment of efficacy parameters and pharmacokinetic/dynamic parameters of subcutaneous injections of GLP-2."}, "[5]": {"system": "plasma PTH", "assay": "Plasma PTH after bedtime administration of GLP-2 in non-fasting subjects (Example 2)", "assay_type": "in vivo, human", "conditions": "postmenopausal women, 2x800 μg 3 hrs apart versus 1600 μg once, at bedtime, FIG. 2", "description": "The study was a randomized, block-stratified, placebo-controlled, parallel study. A total of 44 postmenopausal women were included and randomly assigned to treatment with either 1600 μg GLP-2 (n=14), 800 μg GLP-2 twice (administered 3 hrs apart) (n=15), or placebo, i.e. saline (n=15). All subjects received 2 injections one at 10 pm […] and one 3 hrs later at 1 am […]. Thus, the placebo group was given two injections of saline and the 2×800 μg group two injections of 800 μg GLP-2, while the 1600 μg group received one injection of 1600 μg GLP-2 and one injection of saline.\nOn the day of treatment with the study medication, blood samples for efficacy measurement was taken from 10 pm every hour until 8 am."}}, "data": [{"compound": "C[C@@H](NCCCc1cccc(C(F)(F)F)c1)c1cccc2ccccc12", "note": "[Cinacalcet]", "values": [{"measurement": "reduction in serum PTH", "setting": "[1]", "value": 21.8, "unit": "%"}]}, {"compound": "C=C1/C(=C\\C=C2/CCC[C@]3(C)[C@@H]([C@H](C)CCCC(C)(C)O)CC[C@@H]23)C[C@@H](O)C[C@@H]1O", "note": "[calcitriol]", "values": [{"measurement": "aortic calcification", "setting": "[2]", "value": "moderate to marked aortic calcification"}]}, {"compound": "His-Ala-Asp-Gly-Ser-Phe-Ser-Asp-Glu-Met-Asn-Thr-Ile-Leu-Asp-Asn-Leu-Ala-Ala-Arg-Asp-Phe-Ile-Asn-Trp-Leu-Ile-Gln-Thr-Lys-Ile-Thr-Asp-Arg (HADGSFSDEMNTILDNLAARDFINWLIQTKITDR; printed: His-Ala-Asp-Gly-Ser-Phe-Ser-Asp-Glu-Met-Asn-Thr-Ile-Leu-Asp-Asn-Leu-Ala-Ala-Arg-Asp-Phe-Ile-Asn-Trp-Leu-Ile-Gln-Thr-Lys-Ile-Thr-Asp-Arg) [GLP-2]", "values": [{"measurement": "plasma PTH level after GLP-2", "setting": "[3]", "value": "dose dependent rapid decrease in PTH which gradually abates over an 8 hour period"}, {"measurement": "effect on plasma PTH over the treatment period, Day 1 versus Day 120", "setting": "[4]", "value": "remains consistent"}, {"measurement": "plasma PTH, area difference between treatment and placebo curves", "setting": "[5]", "value": "two injections of 800 μg produced a greater area difference between the treatment and placebo curves"}]}]}
